{"source": "paper PMC10762078", "about": "“Role of UPF1-LIN28A interaction during early differentiation of pluripotent stem cells” (Nature Communications, 2024)", "molecules": {"B1": {"name": "P8 (peptide)", "peptide": "SSADEKRYRALKRTAERELLMNA"}}, "key": {"[1]": {"tested_on": "HeLa, PA-1 and CHA15 cells", "assay": "Cell-penetrating efficiency of CPP-FITC by confocal microscopy", "format": "cell-based", "settings": "PA-1, CHA15", "experimental": "(§1) For CPP-conjugated peptide delivery, HeLa, 293T, and PA-1 cells were incubated with CPP-conjugated peptides or CPP-FITC at 2 μM in DMEM with 10% FBS for 12 h a day before cell harvest. hPSCs were treated with CPP-conjugated peptides at 10 μM in mTeSR Plus Medium, and the peptide-containing medium was changed every day over 10 days. The ROCK inhibitor (Tocris Bioscience, Y-27632) treated-hPSCs were dissociated into single cells using Accutase (Merck, SCR005) and differentiated into ectoderm, mesoderm, and endoderm using the STEMdiff Trilineage Differentiation Kit ([…] Technologies, 05230) following the manufacturer’s protocol. Differentiated cells treated with CPP-conjugated peptides were analysed at 0, 3, and 5 days for ectoderm and endoderm, and at 0, 3, and 4 days for mesoderm.\nImmunofluorescence staining, proximity ligation assay imaging, and cell-penetrating efficiency of CPP-FITC were imaged with a confocal laser scanning microscope (Leica, TSC SP5) or immunofluorescence microscope (Leica, DM5000B). Z-stacks were captured, with sections spanning the entire cell. The LAS X Life Science program was used to obtain the maximum intensity projections and cross-sections of the confocal images.\nDAPI FITC Merge DAPI FITC Merge CHA15 H9 Pro2 H9\nNo peptide CPP-FITC Calnexin\nFor 2-day treatm ent For 4-day treatm ent […]\nSupplementary Fig. 5 a HeLa, PA- 1, and CHA15 wer e treated with CPP-FITC. […]"}, "[2]": {"biological_target": "T1, His-LIN28A (Homo sapiens, UniProt Q9H9Z2)", "T1 construct": "purchased LS-bio LS-G637", "T1 sequence (Q9H9Z2 1-209)": "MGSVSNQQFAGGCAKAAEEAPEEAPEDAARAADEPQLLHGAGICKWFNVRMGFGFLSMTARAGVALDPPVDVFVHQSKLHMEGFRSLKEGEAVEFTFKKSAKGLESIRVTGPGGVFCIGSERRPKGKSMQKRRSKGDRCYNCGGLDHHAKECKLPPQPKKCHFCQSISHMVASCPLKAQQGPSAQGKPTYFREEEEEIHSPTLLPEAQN", "assay": "SPR analyte-ligand binding screening of eight peptides (P1-P8)", "settings": "SPR screening at 15 μM, 3 min association, 6 min dissociation", "experimental": "For ligand immobilisation, the nitrilotriacetic acid (NTA) surface gold sensor chip (icluebio) was activated with 5 mM NiCl2 (Xantec) at a flow rate of 30 μL/min, following equalisation with 1× HBS-T buffer. His-LIN28A (LS-bio, LS-G637) was used as a ligand protein and was applied to a sensor chip at a flow rate of 10 μL/min for 40 min after dilution in 1× HEPES-buffered saline (HBS-T) buffer at a 1/20 ratio. Approximately 1000 resonance units (RU) were bonded to the sensor chip after ligand immobilisation. RU was measured using iMSPR-ProX (icluebio). An indigenous NTA sensor chip was used as a reference channel.\nAnalyte-ligand binding screening was performed by tethering the ligand and reference channels in the connected mode. […] After equalisation with 1× HBS-T buffer, the sensor chip was treated with each peptide for 3 min and then for 6 min with 1× HBS-T buffer for peptide dissociation."}, "[3]": {"tested_on": "CHA15 cells transcriptome / NMD targets", "assay": "RNA-seq of CPP-peptide-treated CHA15 cells (NMD targets, SDGs; Fig. 6a, b, d; Supplementary Fig. 6a; Supplementary Data 2)", "format": "cell-based, Homo sapiens", "settings": "CHA15, P2 vs P1 plot (Fig. 6d)", "experimental": "as §1, with “and the peptide-containing medium was changed every day over 10 days.” left out\nTotal RNA concentration was calculated using Quant-IT RiboGreen (Invitrogen, R11490). To assess the integrity of the total RNA, samples were run on a TapeStation RNA screentape (Agilent). Only high-quality RNA preparations with RNA integrity number greater than 7.0 were used for the RNA library construction. A library was independently prepared with 1 μg of total RNA from each sample using the Illumina TruSeq Stranded mRNA Sample Prep Kit (Illumina, 20020594). The first step in the workflow involves purifying poly‐A-containing mRNA molecules using poly‐T‐attached magnetic beads. Following purification, mRNA was fragmented into small pieces using divalent cations at elevated temperatures. The cleaved RNA fragments were copied into first-strand cDNA using SuperScript II reverse transcriptase (Invitrogen, 18064022) and random primers. This was followed by second-strand cDNA synthesis using DNA polymerase I, RNase H, and dUTP. These cDNA fragments underwent an end repair process, adding a single ‘A’ base and ligating the adapters. The products were purified and enriched via PCR to create the final cDNA library. The libraries were quantified using the KAPA Library Quantification Kits for Illumina Sequencing platforms according to the qPCR Quantification Protocol Guide (KAPA BIOSYSTEMS, KR0405) and qualified using the TapeStation D1000 ScreenTape (Agilent). Indexed libraries were then submitted to an Illumina NovaSeq (Illumina), and Macrogen Inc. performed paired-end (2 × 100 bp) sequencing.\nWe pre-processed the raw reads from the sequencer to remove low-quality reads and adapter sequences before analysis and aligned the processed reads to Homo sapiens (GRCh37) using HISAT v2.1.0[52]. HISAT utilises two indices for alignment (a global whole-genome index and tens of thousands of small local indexes). These two types of indices are constructed using the same Burrows-Wheeler transform (BWT)/graph FM index (GFM) as Bowtie2. The reference genome sequence of Homo sapiens (GRCh37) and the annotation data were downloaded from the NCBI database. Transcript assembly was processed using StringTie v1.3.4d[53],[54]. […] Differentially expressed genes (DEGs) were analysed by ratio of FPKM or using DESeq2 with read counts. Log2 fold-change value of the NMD targets[25],[32], three germ layer markers, miRNA targets, or SDGs was converted into cumulative frequency curve using the R function, ‘ecdf’ (version 4.0.5). Gene functional classification and Gene ontology (GO) were performed using g:Profiler[56]."}, "[4]": {"tested_on": "let-7a, let-7g, miR-16-5p and their targets in CHA15 cells", "assay": "RT-qPCR of mature LIN28A-regulated miRNAs and CDF of let-7-5p / miR-16-5p target mRNAs (Supplementary Fig. 6f)", "format": "cell-based, human", "settings": "Fig. s6f, cumulative curves; P2/P1; Asymptotic two-sample Kolmogorov-Smirnov test, two-sided", "experimental": "cDNA was synthesised using RevertAid Reverse Transcriptase (Thermo Fisher Scientific, EP0441) with synthesised random hexamer (Macrogen) for total RNA or stem-loop primers for miRNA. For RT-qPCR reactions, the SensiFAST SYBR No-ROX kit (Meridian Bioscience) was used according to the manufacturer’s protocol. All data analysis and visualisation were conducted using R 3.6.1 [www.r-project.org] or GraphPad Prism 10. RT primers for miRNA and RT-qPCR primer sequences are provided in Supplementary Data 6.\nGenes regulated by miRNA let-7-5p and miR-16-5p were determined by TargetScanHuman. Among miRNA targets sorted by cumulative weighted context++ score (CWCS)[57], the 100 top genes were selected and analysed using CDF. […]\nScatter\n(bottom panel), respectively. f Levels of m ature endogenous m iRNAs in CHA15 cells, which were regulated by LIN28A, were assessed using RT -qPCR. Cum ulative f raction of log2 fold change in the expression of genes regulated by let-7-5p and m iR-16- 5p was shown as CDF graphs. T he relative level of m RNA was norm alised to that of U6 snRNA in (c, d, and f). K–S tests were used for e and f. Unpaired Student’s t-test was used for c , d, and f . * p < 0.05, ** p < 0.01, *** p < 0.001. Exact p -values were provided in Source data. Data are presented as m ean values ± SEM. All statistical test used were two- sided. T he m inim um num ber of independent biological replicate experim ents was a and e n = 2, b–d and f n = 3. T he experim ents were conducted three tim es, each iteration producing consistent results."}, "[5]": {"biological_target": "T2, His-LIN28A (UniProt Q9H9Z2 1-209)", "T2 chain": "T1 sequence (Q9H9Z2 1-209)", "assay": "SPR"}, "[6]": {"biological_target": "T2, His-LIN28A", "assay": "SPR"}}, "note": "Ends that are not written are not given here.", "data": [{"molecule": "CPP-FITC: CPP conjugated to FITC, used to evaluate cell-penetrating ability in cells (KKKWCRKKK; also: FITC conjugate)", "values": [{"measurement": "intracellular distribution", "setting": "[1]", "result": "distribution of CPP-FITC in the cytoplasm"}]}, {"molecule": "N-STSFDRMQSALKTFAVD-C [P4, peptide derived from the UPF1 (419–700) domain]", "values": [{"measurement": "binding affinity vs others", "setting": "[2]", "result": "slightly"}]}, {"molecule": "KKKWCRKKKMPELQKLQQLKDE [CPP-P2, CPP conjugated to P2; negative control, reference compound]", "values": [{"measurement": "ACADL expression (dot plot)", "setting": "[3]", "result": -0.6893}, {"measurement": "AOC1 expression (dot plot)", "setting": "[3]", "result": -1.502}, {"measurement": "BLOC1S5-TXNDC5 expression (dot plot)", "setting": "[3]", "result": -0.1425}, {"measurement": "TRIM39-RPP21 expression (dot plot)", "setting": "[3]", "result": 0.7164}, {"measurement": "let-7-5p targets, log2FC cumulative curve: Kolmogorov-Smirnov D", "setting": "[4]", "result": 0.07965}, {"measurement": "miR-16-5p targets, log2FC cumulative curve: Kolmogorov-Smirnov D", "setting": "[4]", "result": 0.2271}]}, {"molecule": "B1", "values": [{"measurement": "koff", "setting": "[5]", "result": 0.0137, "unit": "s⁻¹"}, {"measurement": "Kd", "setting": "[6]", "result": 5.2, "unit": "µM"}]}]}
